What all share (format): cell-based
One experiment deals with F/L-HERc cells. Put plainly: Inhibition of IL-3-dependent proliferation of F/L-HERc cells. The settings on record: Mus musculus, murine IL-3, 48 hours. From the text: (§1) In this case, an interleukin-3 (IL-3)-dependent cell line of murine origin was used and was genetically modified in such a way that it expresses functional human EGF-R. Proliferation of these cells, which are called F/L-HERc, can therefore be stimulated either by murine IL-3 or by EGF (see von Ruden, T. et al. in EMBO J. 7, 2749-2756 (1988) and Pierce, J. H. et al. in Science 239, 628-631 (1988)).
(§2) The starting material for the F/L-HERc cells was the cell line FDC-P1,whose preparation has been described by Dexter, T. M. et al. in J. Exp. Med. 152, 1036-1047 (1980). However, it is also possible as an alternative to use other growth factor-dependent cells (see, for example, Pierce, J. H. et al. in Science 239, 628-631 (1988), Shibuya, H. et al. in Cell 70, 57-67 (1992) and Alexander, W. S. et al. in EMBO J. 10, 3683-3691 (1991)). Recombinant retroviruses as described in von Ruden, T. et al., EMBO J. 7, 2749-2756 (1988) were used for expression of the human EGF-R cDNA (see Ullrich, A. et al. in Nature 309, 418-425 (1984)) with the difference that the retroviral vector LXSN (see Miller, A. D. et al. in BioTechniques 7, 980-990 (1989)) was employed for expression of the EGF-R cDNA, and the line GP+E86 (see Markowitz, D. et al. in J. Virol. 62, 1120-1124 (1988)) was used as packaging cell.
(§3) The test was carried out as follows:
(§4) F/L-HERc cells were cultivated in RPMI/1640 medium (BioWhittaker), supplemented with 10% fetal calf serum (FCS, Boehringer Mannheim), 2 mM glutamine (BioWhittaker), standard antibiotics and 20 ng/ml human EGF (Promega), at 37° C. and 5% CO2. To investigate the inhibitory activity of the compounds according to the invention, 1.5×10^4 cells were cultivated in the above medium (200 μl) per well in triplicates in 96-well plates, stimulating proliferation of the cells either with EGF (20 ng/ml) or with murine IL-3. The source used for IL-3 was culture supernatants from the cell line X63/0 mIL-3 (see Karasuyama, H. et al. in Eur. J. Immunol. 18, 97-104 (1988)). The compounds according to the invention were dissolved in 100% dimethyl sulphoxide (DMSO) and added in various dilutions to the cultures, with the maximum DMSO concentration being 1%. The cultures were incubated at 37° C. for 48 hours.
(§5) To determine the inhibitory activity of the compounds according to the invention, the relative cell count was measured in O.D. units using the Cell Titre 96™ AQueous Non-Radioactive Cell Proliferation Assay (Promega). The relative cell count was calculated as a per cent of the control (F/L-HERc cells without inhibitor), and the concentration of active substance which inhibits the proliferation of the cells by 50% (IC50) was inferred.

The next experiment concerns the target T1, human EGF-R (Homo sapiens, UniProt P00533).
T1 construct: expressed in transfected cells; host or cells: F/L-HERc: murine IL-3-dependent FDC-P1 cells infected with recombinant retrovirus (vector LXSN, packaging line GP+E86) carrying human EGF-R cDNA
Put plainly: Inhibition of EGF-dependent proliferation of F/L-HERc cells. The settings on record: EGF (20 ng/ml), 48 hours.
Text: as §1, §2, §3, §4, §5

The test system of experiment [1] is human tumour cell line KB. In words: Inhibition of EGF/TGF-alpha-stimulated KB cell proliferation ([3H]-thymidine incorporation). The settings on record: KB cells, TGF-alpha [10 ng/ml] or EGF [20 ng/ml], 60 hours, then [3H]-thymidine 16-18 h. How it is done:
To do this, the cells were washed twice and 1500 cells per well were plated out in a 96-well plate in 200 μl of IMDM (BioWhittaker) without serum in the presence of 50 μM mercaptoethanol, standard antibiotics, TGF-alpha [10 ng/ml] or EGF [20 ng/ml] and of various concentrations of the substances according to the invention (triplicates, maximum DMSO concentration 1%, see proliferation test with F/L-HERc cells). After 60 hours, [^3 H]-thymidine (0.1 μCi in 10 μl) was added for about 16-18 h.
(In general: Incorporation of labelled thymidine or its analogues reports DNA synthesis.)

pIC50: −log10 of the molar value.

The pIC50 is the IC50 on a negative log10 scale, so that one unit is a factor of ten. Higher therefore signals a low IC50.

T1 sequence (P00533 25-1210): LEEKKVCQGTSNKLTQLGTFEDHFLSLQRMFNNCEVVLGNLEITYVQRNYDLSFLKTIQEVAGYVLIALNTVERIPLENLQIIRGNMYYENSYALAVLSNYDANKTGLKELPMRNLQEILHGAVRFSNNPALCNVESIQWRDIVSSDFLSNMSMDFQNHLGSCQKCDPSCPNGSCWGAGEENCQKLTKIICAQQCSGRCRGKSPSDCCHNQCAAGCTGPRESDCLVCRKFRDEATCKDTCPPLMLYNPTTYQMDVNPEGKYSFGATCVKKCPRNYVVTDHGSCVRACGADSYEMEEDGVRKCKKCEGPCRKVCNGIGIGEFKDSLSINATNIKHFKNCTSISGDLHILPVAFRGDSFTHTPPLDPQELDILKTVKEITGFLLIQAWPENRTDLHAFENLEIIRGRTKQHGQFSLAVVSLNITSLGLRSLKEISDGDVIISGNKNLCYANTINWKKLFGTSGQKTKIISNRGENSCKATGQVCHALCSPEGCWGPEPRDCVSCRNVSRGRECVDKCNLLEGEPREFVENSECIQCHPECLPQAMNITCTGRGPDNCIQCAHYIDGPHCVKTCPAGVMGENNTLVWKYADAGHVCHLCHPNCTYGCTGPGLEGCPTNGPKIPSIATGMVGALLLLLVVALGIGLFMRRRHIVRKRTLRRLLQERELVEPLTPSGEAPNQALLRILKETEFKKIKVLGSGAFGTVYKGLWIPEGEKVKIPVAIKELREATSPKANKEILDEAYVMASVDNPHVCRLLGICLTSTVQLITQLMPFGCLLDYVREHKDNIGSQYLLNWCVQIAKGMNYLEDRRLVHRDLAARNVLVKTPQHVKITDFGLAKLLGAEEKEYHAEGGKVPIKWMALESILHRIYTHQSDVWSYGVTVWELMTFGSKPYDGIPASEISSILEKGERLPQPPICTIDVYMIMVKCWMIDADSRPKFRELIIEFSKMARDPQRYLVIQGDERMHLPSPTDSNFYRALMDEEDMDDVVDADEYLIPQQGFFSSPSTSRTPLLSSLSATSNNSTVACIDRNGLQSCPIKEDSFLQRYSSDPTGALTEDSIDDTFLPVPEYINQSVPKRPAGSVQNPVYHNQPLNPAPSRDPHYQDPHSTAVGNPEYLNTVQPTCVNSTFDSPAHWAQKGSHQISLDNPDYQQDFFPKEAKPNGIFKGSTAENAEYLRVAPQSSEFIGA

On to `O=C(CN1CCN(c2ncc3ncnc(Nc4ccc(F)c(Cl)c4)c3n2)CC1)N1CCCC1` [2(4), 4-[(3-chloro-4-fluorophenyl)amino]-6-[4-(1-pyrrolidinylcarbonylmethyl)-1-piperazinyl]pyrimido[5,4-d]pyrimidine], for which the pIC50 with F/L-HERc cells is under 5.00; against human EGF-R it was 6.70.
In the case of `Fc1ccc(Nc2ncnc3cnc(N4CCC(c5ccncc5)CC4)nc23)cc1Cl` [2(9), 4-[(3-chloro-4-fluorophenyl)amino]-6-[4-(4-pyridyl)-1-piperidinyl]pyrimido[5,4-d]pyrimidine], the values for the pIC50 with F/L-HERc cells and against human EGF-R were under 4.70 and 6.65, respectively.
As for `O[C@H]1CC[C@H](Nc2ncc3ncnc(Nc4ccc5[nH]ccc5c4)c3n2)CC1` [2(1), 4-(5-indolylamino)-6-[trans-(4-hydroxycyclohexyl)amino]pyrimido[5,4-d]pyrimidine], the pIC50 is under 5.00 with F/L-HERc cells and 9.00 on human EGF-R.
In the same order, the values of `O=C(CN1CCN(c2ncc3ncnc(Nc4ccc(F)c(Cl)c4)c3n2)CC1)N1CCOCC1` [2(5), 4-[(3-chloro-4-fluorophenyl)amino]-6-[4-(morpholinocarbonylmethyl)-1-piperazinyl]pyrimido[5,4-d]pyrimidine] are under 5.00 and 7.40.
Regarding `NCc1cccc(CNc2ncc3ncnc(Nc4ccc(F)c(Cl)c4)c3n2)c1` [2(11), 4-[(3-chloro-4-fluorophenyl)amino]-6-[3-(aminomethyl)benzylamino]pyrimido[5,4-d]pyrimidine], the pIC50 at human EGF-R was 6.72.
Turning to `Fc1ccc(Nc2ncnc3cnc(N4CCN(c5ccccn5)CC4)nc23)cc1Cl` [2(10), 4-[(3-chloro-4-fluorophenyl)amino]-6-[4-(2-pyridyl)-1-piperazinyl]pyrimido[5,4-d]pyrimidine], the values for the pIC50 in the experiment on F/L-HERc cells and at human EGF-R were under 4.70 and 6.56, respectively.
Turning to `Cc1cccc(Nc2ncnc3cnc(-n4ccnc4)nc23)c1` [2(2), 4-[(3-methylphenyl)amino]-6-(1-imidazolyl)pyrimido-[5,4-d]pyrimidine], the pIC50 on human EGF-R was 6.40.
Regarding `c1cc(Nc2ncnc3cnc(N4CCOCC4)nc23)c2cccnc2c1` [1(1), 4-(5-quinolylamino)-6-morpholinopyrimido[5,4-d]pyrimidine], the results for the pIC50 in the experiment on F/L-HERc cells and against human EGF-R were 5.00 and 5.70, respectively.
In the same order, the values of `O=C(N1CCC(Nc2ncc3ncnc(Nc4ccc(F)c(Cl)c4)c3n2)CC1)C(F)(F)F` [2(8), 4-[(3-chloro-4-fluorophenyl)amino]-6-[1-trifluoroacetyl-4-piperidinylamino]pyrimido[5,4-d]pyrimidine] are under 4.70 and 7.82.
On human EGF-R, `NCc1ccc(CNc2ncc3ncnc(Nc4ccc(F)c(Cl)c4)c3n2)cc1` [2(12), 4-[(3-chloro-4-fluorophenyl)amino]-6-[4-(aminomethyl)benzylamino]pyrimido[5,4-d]pyrimidine] gave a pIC50 of 7.01.
Consider `Fc1ccc(Nc2ncnc3cnc(NN4CCOCC4)nc23)cc1Cl` [Example 2(6), 4-[(3-chloro-4-fluorophenyl)amino]-6-[(4-morpholinyl)amino]pyrimido[5,4-d]pyrimidine], for which the values for the pIC50 (in experiment [1]; with F/L-HERc cells; against human EGF-R) were 7.00, under 5.00 and 8.52, respectively.
In the case of `c1cc(Nc2ncnc3cnc(N4CCOCC4)nc23)c2nsnc2c1` [1(5), 4-[4-(2,1,3-benzothiadiazolyl)amino]-6-morpholinopyrimido[5,4-d]pyrimidine], the pIC50 at human EGF-R is 6.00.
Consider `CN1CCC2(CC1)CN(c1ncc3ncnc(Nc4ccc(F)c(Cl)c4)c3n1)C2` [2(3), 4-[(3-chloro-4-fluorophenyl)amino]-6-(7-methyl-2,7-diazaspiro[3.5]-2-nonyl)pyrimido[5,4-d]pyrimidine], for which the pIC50 is under 5.00 with F/L-HERc cells and 6.86 against human EGF-R.
Turning to `Fc1ccc(Nc2ncnc3cnc(NCc4ccncc4)nc23)cc1Cl` [Example 2, 4-[(3-Chloro-4-fluorophenyl)amino]-6-(4-picolylamino)pyrimido[5,4-d]pyrimidine], the pIC50 was 6.40 in experiment [1], under 6.00 in the experiment on F/L-HERc cells and 7.30 against human EGF-R.
At human EGF-R, `c1cnc2c(Nc3ncnc4cnc(N5CCOCC5)nc34)cccc2c1` [1(3), 4-(8-quinolylamino)-6-morpholinopyrimido[5,4-d]pyrimidine] showed a pIC50 of 6.10.
For `c1nc(Nc2ccc3[nH]ccc3c2)c2nc(N3CCOCC3)ncc2n1` [Example 1, 4-(5-Indolylamino)-6-morpholinopyrimido[5,4-d]pyrimidine], the figures for the pIC50 with F/L-HERc cells and against human EGF-R were 5.00 and 7.68, respectively.
In the same order, the values of `Fc1ccc(Nc2ncnc3cnc(NCc4ccccn4)nc23)cc1Cl` [2(7), 4-[(3-chloro-4-fluorophenyl)amino]-6-(2-picolylamino)pyrimido[5,4-d]pyrimidine] are under 6.00 and 6.76.
Consider `c1cnc2ccc(Nc3ncnc4cnc(N5CCOCC5)nc34)cc2c1` [1(2), 4-(6-quinolylamino)-6-morpholinopyrimido[5,4-d]pyrimidine], for which the pIC50 against human EGF-R was 6.00.
On to `c1cc2cc(Nc3ncnc4cnc(N5CCOCC5)nc34)ccc2cn1` [1(14), 4-(6-isoquinolylamino)-6-morpholinopyrimido[5,4-d]-pyrimidine], for which the pIC50 was 5.66 with F/L-HERc cells and 5.64 at human EGF-R.
The like results for `Clc1cccc(CNc2ncnc3cnc(N4CCOCC4)nc23)c1` [1(15), 4-(3-chlorobenzylamino)-6-morpholinopyrimido[5,4-d]-pyrimidine] were, in that order, under 5.00 and 9.00.
In the case of `CN1[C@@H]2CC[C@H]1C[C@@H](Nc1ncc3ncnc(Nc4ccc(F)c(Cl)c4)c3n1)C2` [2(18), 4-[(3-chloro-4-fluorophenyl)amino]-6-(endo-tropinylamino)pyrimido[5,4-d]pyrimidine], the pIC50 is under 5.00 in the experiment with F/L-HERc cells and 6.86 against human EGF-R.
As for `c1cncc(Nc2ncnc3cnc(N4CCOCC4)nc23)c1` [1(9), 4-(3-pyridylamino)-6-morpholinopyrimido[5,4-d]pyrimidine], the pIC50 against human EGF-R is 5.22.
The same measure, in the same setting: the value for `c1ccc2c(c1)CCC(Nc1ncnc3cnc(NC4CC4)nc13)C2` (stereo not shown) [1(16), 4-(1,2,3,4-tetrahydro-2-naphthylamino)-6-cyclopropylaminopyrimido[5,4-d]pyrimidine] was 6.70.
On to `CN1[C@@H]2CC[C@H]1C[C@H](Nc1ncc3ncnc(Nc4ccc(F)c(Cl)c4)c3n1)C2` [2(19), 4-[(3-chloro-4-fluorophenyl)amino]-6-(exo-tropinylamino)pyrimido[5,4-d]pyrimidine], for which the pIC50 in the experiment with F/L-HERc cells is under 5.00; against human EGF-R, 7.55.
Consider `O[C@H]1CC[C@H](Nc2ncc3ncnc(Nc4ccc5c(c4)Cc4ccccc4-5)c3n2)CC1` [2(15), 4-[2-fluorenylamino]-6-(trans-4-hydroxycyclohexylamino)pyrimido[5,4-d]pyrimidine], for which the pIC50 against human EGF-R is under 5.00.
With `c1cc(Nc2ncnc3cnc(N4CCOCC4)nc23)ccn1` [1(13), 4-(4-pyridylamino)-6-morpholinopyrimido[5,4-d]pyrimidine], the pIC50 is 5.05 with F/L-HERc cells and 5.00 on human EGF-R.
`c1nc(Nc2ccc3[nH]ncc3c2)c2nc(N3CCOCC3)ncc2n1` [1(4), 4-(5-indazolylamino)-6-morpholinopyrimido[5,4-d]pyrimidine]: at human EGF-R, the pIC50 was 6.90.

(Values after patent publication US5977102A, “Pyrimido [5, 4-d] pyrimidines, pharmaceuticals containing these compounds, their use and processes for their preparation” (Dr. Karl Thomae GmbH, priority 1996, dated 1999).)
